In patent US20170050957A1, “4-AMINO-6-(HETEROCYCLIC)PICOLINATES AND 6-AMINO-2-(HETEROCYCLIC)PYRIMIDINE-4-CARBOXYLATES AND THEIR USE AS HERBICIDES” (Dow AgroSciences LLC, priority 2013, published 2017):
Read-outs that look alike come from different tables or passages of the source.

How the values were obtained:
[1] = tested on: Key Broadleaf Weed and Crop Species; assay: Post-emergent Test II herbicidal activity (Table 15); assay type: in vivo; conditions: post-emergence, 336 h, 14 d; for pest or weed control at 35 g/ha: 35 g ai/ha; for pest or weed control at 70 g/ha: 70 g ai/ha; for pest or weed control at 140 g/ha: 140 g ai/ha
In short: (§1)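 Greenhouse-grown seedlings at first/second true leaf receive a track spray at 187 L/ha, using a highest rate plus two-fold serial dilutions down to 1/16×. Watering is by subirrigation to avoid wash-off. Percent injury (0-100) is judged by eye at 14 d against untreated plants.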

[2] = tested on: Key Grass and Sedge Weeds as well as Grass Crops; assay: Post-emergent Test II herbicidal activity (Table 16); assay type: in vivo; conditions: post-emergence, 336 h, 14 d; for pest or weed control at 35 g/ha: 35 g ai/ha; for pest or weed control at 70 g/ha: 70 g ai/ha; for pest or weed control at 140 g/ha: 140 g ai/ha
In short: as §1

[3] = Abutilon theophrasti, velvetleaf (Abutilon theophrasti), read-out: Visual Growth Reduction (%) 14 Days After Application, ABUTH
[4] = Amaranthus retroflexus, redroot pigweed (Amaranthus retroflexus), read-out: Visual Growth Reduction (%) 14 Days After Application, AMARE
[5] = Brassica napus, oilseed rape, canola (Brassica napus), read-out: Visual Growth Reduction (%) 14 Days After Application, BRSNN
[6] = Chenopodium album, lambsquarters (Chenopodium album), read-out: Visual Growth Reduction (%) 14 Days After Application, CHEAL
[7] = Euphorbia heterophylla, wild poinsettia (Euphorbia heterophylla), read-out: Visual Growth Reduction (%) 14 Days After Application, EPHHL
[8] = Helianthus annuus, sunflower (Helianthus annuus), read-out: Visual Growth Reduction (%) 14 Days After Application, HELAN
[9] = Cyperus esculentus, yellow nutsedge (Cyperus esculentus), read-out: Visual Growth Reduction (%) 14 Days After Application, CYPES
[10] = Echinochloa crus-galli, barnyardgrass (Echinochloa crus-galli), read-out: Visual Growth Reduction (%) 14 Days After Application, ECHCG
[11] = Oryza sativa, rice (Oryza sativa), read-out: Visual Growth Reduction (%) 14 Days After Application, ORYSA
[12] = Setaria faberi, giant foxtail (Setaria faberi), read-out: Visual Growth Reduction (%) 14 Days After Application, SETFA
[13] = Triticum aestivum, wheat, spring (Triticum aestivum), read-out: Visual Growth Reduction (%) 14 Days After Application, TRZAS
[14] = Zea mays, maize, corn (Zea mays), read-out: Visual Growth Reduction (%) 14 Days After Application, ZEAMX

| SMILES | pest or weed control at 35 g/ha [1, 3] | pest or weed control at 70 g/ha [1, 3] | pest or weed control at 140 g/ha [1, 3] | pest or weed control at 35 g/ha [1, 4] | pest or weed control at 70 g/ha [1, 4] | pest or weed control at 140 g/ha [1, 4] | pest or weed control at 35 g/ha [1, 5] | pest or weed control at 70 g/ha [1, 5] | pest or weed control at 140 g/ha [1, 5] | pest or weed control at 35 g/ha [1, 6] | pest or weed control at 70 g/ha [1, 6] | pest or weed control at 140 g/ha [1, 6] | pest or weed control at 35 g/ha [1, 7] | pest or weed control at 70 g/ha [1, 7] | pest or weed control at 140 g/ha [1, 7] | pest or weed control at 35 g/ha [1, 8] | pest or weed control at 70 g/ha [1, 8] | pest or weed control at 140 g/ha [1, 8] | pest or weed control at 35 g/ha [2, 9] | pest or weed control at 70 g/ha [2, 9] | other results |
| --- | --- | --- | --- | --- | --- | --- | --- | --- | --- | --- | --- | --- | --- | --- | --- | --- | --- | --- | --- | --- | --- |
| Nc1nc(-c2ccc(Cl)c3occc23)nc(C(=O)O)c1Cl [Compound 2.23] | 0 to 29% | 0 to 29% | 0 to 29% | 95 to 100% | 95 to 100% | 95 to 100% | 0 to 29% | 0 to 29% | 0 to 29% | 95 to 100% | 95 to 100% | 95 to 100% | 0 to 29% | 0 to 29% | 0 to 29% | 85 to 94% | 95 to 100% | 95 to 100% | 0 to 29% | 0 to 29% | pest or weed control at 140 g/ha [2, 9]: 0 to 29%; pest or weed control at 35 g/ha [2, 10]: 0 to 29%; pest or weed control at 70 g/ha [2, 10]: 0 to 29%; pest or weed control at 140 g/ha [2, 10]: 0 to 29%; pest or weed control at 35 g/ha [2, 11]: 0 to 29%; pest or weed control at 70 g/ha [2, 11]: 0 to 29%; pest or weed control at 140 g/ha [2, 11]: 0 to 29%; pest or weed control at 35 g/ha [2, 12]: 0 to 29%; pest or weed control at 70 g/ha [2, 12]: 0 to 29%; pest or weed control at 140 g/ha [2, 12]: 0 to 29%; pest or weed control at 35 g/ha [2, 13]: 0 to 29%; pest or weed control at 70 g/ha [2, 13]: 0 to 29%; pest or weed control at 140 g/ha [2, 13]: 0 to 29%; pest or weed control at 35 g/ha [2, 14]: 0 to 29%; pest or weed control at 70 g/ha [2, 14]: 0 to 29%; pest or weed control at 140 g/ha [2, 14]: 0 to 29%; melting point: 173 to 174.5 °C |
| COC(=O)c1nc(-c2ccc(Cl)c3ccoc23)c(F)c(N)c1Cl [Compound 2.24] | 75 to 84% | 75 to 84% | 95 to 100% | 95 to 100% | 95 to 100% | 95 to 100% | 60 to 74% | 75 to 84% | 75 to 84% | 95 to 100% | 95 to 100% | 95 to 100% | 60 to 74% | 75 to 84% | 75 to 84% | 75 to 84% | 75 to 84% | 85 to 94% | 60 to 74% | 75 to 84% | pest or weed control at 140 g/ha [2, 9]: 85 to 94%; pest or weed control at 35 g/ha [2, 10]: 0 to 29%; pest or weed control at 70 g/ha [2, 10]: 0 to 29%; pest or weed control at 140 g/ha [2, 10]: 0 to 29%; pest or weed control at 35 g/ha [2, 11]: 0 to 29%; pest or weed control at 70 g/ha [2, 11]: 0 to 29%; pest or weed control at 140 g/ha [2, 11]: 0 to 29%; pest or weed control at 35 g/ha [2, 12]: 0 to 29%; pest or weed control at 70 g/ha [2, 12]: 0 to 29%; pest or weed control at 140 g/ha [2, 12]: 0 to 29%; pest or weed control at 35 g/ha [2, 13]: 0 to 29%; pest or weed control at 70 g/ha [2, 13]: 0 to 29%; pest or weed control at 140 g/ha [2, 13]: 0 to 29%; pest or weed control at 35 g/ha [2, 14]: 0 to 29%; pest or weed control at 70 g/ha [2, 14]: 30 to 44%; pest or weed control at 140 g/ha [2, 14]: 60 to 74%; melting point: 167 °C |
| COC(=O)c1nc(-c2ccc(Cl)c3ccoc23)cc(N)c1Cl [Compound 2.25] | 75 to 84% | 75 to 84% | 95 to 100% | 95 to 100% | 95 to 100% | 95 to 100% | 0 to 29% | 45 to 59% | 75 to 84% | 95 to 100% | 95 to 100% | 95 to 100% | 0 to 29% | 75 to 84% | 85 to 94% | 0 to 29% | 30 to 44% | 85 to 94% | 0 to 29% | 30 to 44% | pest or weed control at 140 g/ha [2, 9]: 75 to 84%; pest or weed control at 35 g/ha [2, 10]: 0 to 29%; pest or weed control at 70 g/ha [2, 10]: 0 to 29%; pest or weed control at 140 g/ha [2, 10]: 0 to 29%; pest or weed control at 35 g/ha [2, 11]: 0 to 29%; pest or weed control at 70 g/ha [2, 11]: 0 to 29%; pest or weed control at 140 g/ha [2, 11]: 0 to 29%; pest or weed control at 35 g/ha [2, 12]: 0 to 29%; pest or weed control at 70 g/ha [2, 12]: 0 to 29%; pest or weed control at 140 g/ha [2, 12]: 0 to 29%; pest or weed control at 35 g/ha [2, 13]: 0 to 29%; pest or weed control at 70 g/ha [2, 13]: 0 to 29%; pest or weed control at 140 g/ha [2, 13]: 0 to 29%; pest or weed control at 35 g/ha [2, 14]: 0 to 29%; pest or weed control at 70 g/ha [2, 14]: 0 to 29%; pest or weed control at 140 g/ha [2, 14]: 45 to 59%; melting point: 169 °C |
